One series addresses T1, COX-2 (UniProt P35354).
T1 sequence (P35354 1-604): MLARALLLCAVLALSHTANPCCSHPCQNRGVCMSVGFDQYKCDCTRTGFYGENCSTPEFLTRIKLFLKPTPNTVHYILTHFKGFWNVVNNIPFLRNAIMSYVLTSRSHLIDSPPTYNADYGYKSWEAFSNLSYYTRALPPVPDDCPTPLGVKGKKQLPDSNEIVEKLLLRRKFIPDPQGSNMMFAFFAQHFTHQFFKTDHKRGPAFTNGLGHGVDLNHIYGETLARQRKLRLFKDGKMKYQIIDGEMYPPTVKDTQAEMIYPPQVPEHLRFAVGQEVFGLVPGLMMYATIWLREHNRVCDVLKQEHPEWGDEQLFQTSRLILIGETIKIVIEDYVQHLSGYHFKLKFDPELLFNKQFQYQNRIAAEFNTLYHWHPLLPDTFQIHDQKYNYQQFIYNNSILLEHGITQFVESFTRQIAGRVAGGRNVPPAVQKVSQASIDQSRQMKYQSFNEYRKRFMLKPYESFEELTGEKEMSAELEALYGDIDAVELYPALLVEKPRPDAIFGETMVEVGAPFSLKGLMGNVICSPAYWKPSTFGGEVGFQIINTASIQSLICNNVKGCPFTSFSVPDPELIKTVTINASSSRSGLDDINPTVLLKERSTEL
As to the kind of experiment: Assay for COX-2 activity in vitro (PGE2 ELISA, recombinant enzyme). In kind it is biochemical, human or murine. The conditions noted are these: recombinant COX-2, arachidonic acid 10 μM, pre-incubation 10–20 minutes. As to the method:
Evaluation of COX-1 and COX-2 Activity in vitro
The COX-2 inhibit on activity of the compounds or this invention illustrated in the Examples was determined by the following methods. a. Preparation of Recombinant COX Baculoviruses
(§1) Recombinant COX-1 and COX-2 were prepared as described by Gierse et al, [J. Biochem., 305, 479–84 (1995)]. A 2.0 kb fragment containing the coding region of either human or murine COX-1 or human or murine COX-2 was cloned into a BamHI site of the baculovirus transfer vector pVL1393 (Invitrogen) to generate the baculovirus transfer vectors for COX-1 and COX-2 in a manner similar to the method of D. R. O'Reilly et al (Baculovirus Expression Vectors: A Laboratory Manual (1992)). Recombinant baculoviruses were isolated by transfecting 4 μg of baculovirus transfer vector DNA into SF9 insect cells (2×10^8) along with 200 ng of linearized baculovirus plasmid DNA by the calcium phosphate method. See M. D. Summers and G. E. Smith, A Manual of Methods for Baculovirus Vectors and Insect Cell Culture Procedures, Texas Agric. Exp. Station Bull. 1555 (1987). Recombinant viruses were purified by three rounds of plaque purification and high titer (10^7–10^8 pfu/ml) stocks of virus were prepared. For large scale production, SF9 insect cells were infected in 10 liter fermentors (0.5×10^6/ml) with the recombinant baculovirus stock such that the multiplicity of infection was 0.1. After 72 hours the cells were centrifuged and the cell pellet homogenized in Tris/Sucrose (50 mM: 25%, pH 8.0) containing 1% 3-[(3-cholamidopropyl)dimethylammonio]-1-propanesulfonate (CHAPS). The homogenate was centrifuged at 10,000×G for 30 minutes, and the resultant supernatant was stored at −80° C. before being assayed for COX activity. […]
(§2) b. Assay for COX-1 and COX-2 Activity
(§3) COX activity was assayed as PGE2 formed/μg protein/time using an ELISA to detect the prostaglandin released. CHAPS-solubilized insect cell membranes containing the appropriate COX enzyme were incubated in a potassium phosphate buffer (50 mM, pH 8.0) containing epinephrine, phenol, and heme with the addition of arachidonic acid (10 μM). Compounds were pre-incubated with the enzyme for 10–20 minutes prior to the addition of arachidonic acid. Any reaction between the arachidonic acid and the enzyme was stopped after ten minutes at 37° C./room temperature by transferring 40 μl of reaction mix into 160 μl ELISA buffer and 25 μM indomethacin. The PGE2 formed was measured by standard ELISA technology (Cayman Chemical).
Background: In an ELISA, binding on a coated surface is turned into a signal by an enzyme label.

In the next series the target is T2, 5-lipoxygenase (5-LO) (Homo sapiens, UniProt P09917).
T2 construct: calcium ionophore-induced Leukotriene B4 (LTB4) production in human whole blood; endogenous in cells; host or cells: human whole blood (healthy donors), diluted 1:4 in RPMI 1640
T2 sequence (P09917 1-674): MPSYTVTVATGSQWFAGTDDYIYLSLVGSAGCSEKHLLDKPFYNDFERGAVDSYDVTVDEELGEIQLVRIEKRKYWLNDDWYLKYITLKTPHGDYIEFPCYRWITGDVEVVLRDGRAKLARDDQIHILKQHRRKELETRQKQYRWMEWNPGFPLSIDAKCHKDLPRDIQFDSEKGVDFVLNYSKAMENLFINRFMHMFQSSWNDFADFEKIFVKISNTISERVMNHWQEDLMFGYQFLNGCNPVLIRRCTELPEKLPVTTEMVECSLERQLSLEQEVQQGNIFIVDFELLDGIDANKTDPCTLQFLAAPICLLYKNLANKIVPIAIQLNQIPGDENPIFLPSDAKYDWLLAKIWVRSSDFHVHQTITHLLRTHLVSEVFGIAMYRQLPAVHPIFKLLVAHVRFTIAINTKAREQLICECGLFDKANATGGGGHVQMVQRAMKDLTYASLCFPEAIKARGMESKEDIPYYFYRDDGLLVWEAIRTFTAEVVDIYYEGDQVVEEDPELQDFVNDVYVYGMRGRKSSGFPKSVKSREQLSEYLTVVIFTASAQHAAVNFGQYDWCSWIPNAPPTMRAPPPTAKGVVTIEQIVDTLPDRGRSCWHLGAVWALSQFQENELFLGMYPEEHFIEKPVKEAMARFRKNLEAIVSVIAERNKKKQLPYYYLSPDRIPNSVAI
As to the kind of experiment: Assay for 5-lipoxygenase activity: calcium ionophore-induced LTB4 production in human whole blood. It counts as cell-based. The conditions noted are these: A-23187 (20 μg/ml)-induced LTB4 in human whole blood; mean IC50. On the procedure: Assay for 5-Lipoxygenase Activity
The 5-lipoxygenase (5-LO) activity of the compounds were determined by the calcium ionophore-induced Leukotriene B4 (LTB4) production in human whole blood. Venous blood was collected from healthy human donors using heparin as an anti-coagulant. Human blood samples (0.2 ml of a 1:4 dilution in RPMI 1640 medium) were incubated in 96-well culture plates for 15 minutes at 37° C. with test compounds dissolved in ethanol (EtOH; final concentration<1%), or vehicle. Typically 7 concentrations of test compounds were examined in duplicate. A-23187 [Sigma] was added to the blood to a final concentration of 20 μg/ml, and the mixtures were incubated for 10 minutes at 37° C. The reaction was stopped by placing the samples on ice. The samples were then centrifuged at 800×g at 4° C. for 10 minutes to pellet the cells, and the supernatants were recovered for quantitation of LTB4 by LISA (Cayman Chemical Co.; sensitivity 3 pg/ml). IC50's were estimated from a four parameter logistic model with two parameters fixed, the minimum (0% inhibition) and maximum (100% inhibition). The IC50 value is the concentration that produces 50% inhibition between the fixed values of the minimum and maximum. Data is reported as the mean IC50 for each compound.

For a further series, the target named is COX-1 (UniProt P23219). As to the kind of experiment: Assay for COX-1 activity in vitro (PGE2 ELISA, recombinant enzyme). In kind it is biochemical, human or murine. To be noted: recombinant COX-1, arachidonic acid 10 μM, pre-incubation 10–20 minutes. On the procedure:
Evaluation of COX-1 and COX-2 Activity in vitro a. Preparation of Recombinant COX Baculoviruses
as §1, §2, §3

Take `COC1(c2cccc(CSCCc3nc(-c4ccccc4)c(-c4ccc(S(N)(=O)=O)cc4)o3)c2)CCOCC1` [Example 19, 4-[2-[[[3-(3,4,5,6-Tetrahydro-4-methoxypyran-4-yl)phenylmethyl]thio]ethyl]-4-phenyloxazol-5-yl]benzenesulfonamide]: the melting point (as a rule, the temperature, or range, at which the solid turns liquid) lay in the range of 60.9 to 66.4 °C. Further, at COX-2, the IC50 (in general, the concentration at which inhibition is half-maximal) is less than 100 nM. Further, the IC50 at 5-lipoxygenase (5-LO) is greater than 10000 nM. Besides, the IC50 at COX-1 was 2300 nM.

Take `COc1cccc(SCc2cc(-c3ccc(Cl)cc3)n(-c3ccc(S(N)(=O)=O)cc3)n2)c1` [Example 6, 4-[5-(4-Chlorophenyl)-3-(3-methoxyphenyl)thiomethyl-1H pyrazol-1-yl]benzenesulfonamide]: the IC50 was less than 100 nM at COX-2, 440 nM on 5-lipoxygenase (5-LO) and 2200 nM on COX-1.

In turn, `COC(=O)C(Cc1cccc(C2(OC)CCOCC2)c1)c1nc(-c2ccccc2)c(-c2ccc(S(N)(=O)=O)cc2)o1` (stereo not drawn) [Example 9, Methyl 5-[4-(aminosulfonyl)phenyl]-α-[[3-(3,4,5,6-tetrahydro-4-methoxypyran-4-yl)phenyl]methyl]-4-phenyloxazole-2-acetate] displayed a melting point of 88.7 to 94.9 °C. The IC50 at COX-2 came out at 10000 nM. Moreover, the IC50 on 5-lipoxygenase (5-LO) was greater than 10000 nM. The IC50 on COX-1 stood at 80000 nM.

Turning to `COc1cccc(OCc2cc(-c3ccc(Cl)cc3)n(-c3ccc(S(N)(=O)=O)cc3)n2)c1` [Example 7, 4-[5-(4-Chlorophenyl)-3-(3-methoxyphenyl)oxymethyl-1H-pyrazol-1-yl]benzenesulfonamide], the IC50 is less than 100 nM at COX-2, 650 nM at 5-lipoxygenase (5-LO) and 3800 nM at COX-1.

As for `COC1(c2cccc(CSCc3nc(-c4ccccc4)c(-c4ccc(S(N)(=O)=O)cc4)o3)c2)CCOCC1` [Example 18, 4-[2-[[[3-(3,4,5,6-Tetrahydro-4-methoxypyran-4-yl)phenylmethyl]thio]methyl]-4-phenyloxazol-5-yl]benzenesulfonamide], the melting point was 77.2 to 81.7 °C.

`COC1(c2cc(F)cc(OCc3onc(-c4ccccc4)c3-c3ccc(S(N)(=O)=O)cc3)c2)CCOCC1` [Example 16, 4-[5-[[3-Fluoro-5-(3,4,5,6-tetrahydro-4-methoxypyran-4-yl)phenoxy]methyl]-3-phenylisoxazol-4-yl]benzenesulfonamide]: the values for the half-inhibitory concentration (IC50) at COX-2, on 5-lipoxygenase (5-LO) and on COX-1 were less than 100 nM, greater than 10000 nM and greater than 100000 nM, respectively.

As for `COC1(c2cc(F)cc(OCC(=O)NCCc3nc(-c4ccccc4)c(-c4ccc(S(N)(=O)=O)cc4)o3)c2)CCOCC1` [Example 22], the IC50 at COX-2 was 1100 nM; on 5-lipoxygenase (5-LO), greater than 10000 nM; on COX-1 it was greater than 100000 nM.

Turning to `COC1(c2cccc(Oc3nc(-c4ccccc4)c(-c4ccc(S(N)(=O)=O)cc4)o3)c2)CCOCC1` [Example 5, 4-[2-[3-(4-Methoxy-3,4,5,6-tetrahydro-2H-pyran-4-yl)phenoxy]-4-phenyl-5-oxazolyl]benzenesulfonamide], the melting point was in the range of 145 to 147 °C. In addition, the IC50 at COX-2 was less than 100 nM. The IC50 at 5-lipoxygenase (5-LO) worked out at 17000 nM. Also, the IC50 at COX-1 is less than 100 nM.

As to `COC1(c2cccc(OCc3nc(-c4ccc(F)cc4)c(-c4ccc(S(C)(=O)=O)cc4)o3)c2)CCOCC1` [Example 2, 4-(4-Fluorophenyl)-5-(4-(methylsulfonyl)phenyl)-2-[[3-(3,4,5,6-tetrahydro-4-methoxy-2H-pyran-4-yl)phenoxy]methyl]oxazole], the half-inhibitory concentration (IC50) at COX-2 was 200 nM; on 5-lipoxygenase (5-LO), 50 nM; on COX-1 it was greater than 10000 nM.

Molecule `COC1(c2cc(F)cc(OCc3nc(-c4ccc(F)cc4)c(-c4ccc(S(N)(=O)=O)cc4)o3)c2)CCOCC1` [Example 14, 4-[2-[[3-Fluoro-5-(3,4,5,6-tetrahydro-4-methoxypyran-4-yl)phenoxy]methyl]-4-(4-fluorophenyl)oxazol-5-yl]benzenesulfonamide] registered a melting point of 70 to 72 °C. The IC50 on COX-2 was less than 100 nM. Moreover, the IC50 at 5-lipoxygenase (5-LO) was 200 nM. Also, at COX-1, the IC50 is 5000 nM.

For the molecule `COC1(c2cc(F)cc(Oc3nc(-c4ccccc4)c(-c4ccc(S(N)(=O)=O)cc4)o3)c2)CCOCC1` [Example 4, 4-[2-[3-Fluoro-5-(4-methoxy-3,4,5,6-tetrahydro-2H-pyran-4-yl)phenoxy]-4-phenyl-5-oxazolyl]benzenesulfonamide], the melting point is 159 to 161 °C. Further, the IC50 at COX-2 was less than 100 nM. Also, on 5-lipoxygenase (5-LO), the IC50 is 14000 nM. The IC50 on COX-1 was less than 100 nM.

For `COC1(c2cc(F)cc(OCc3cc(-c4ccc(Cl)cc4)n(-c4ccc(S(N)(=O)=O)cc4)n3)c2)CCOCC1` [Example 1, 4-[5-(4-Chlorophenyl)-3-[[3-fluoro-5-(3,4,5,6-tetrahydro-4-methoxy-2H-pyran-4-yl)phenoxy]methyl]-1H-pyrazol-1-yl]benzenesulfonamide], the IC50 on COX-2 is less than 100 nM; at 5-lipoxygenase (5-LO), 150 nM; on COX-1, 38000 nM.

For the origin of these results see US6998415B2, “Substituted sulfonylphenylheterocycles as cyclooxygenase-2 and 5-lipoxygenase inhibitors” (Pharmacia Corporation, priority 1996, dated 2006).
